Values after ≈ are worked out from the molar mass of the structure shown.
Assays:
Assay type in all cases: functional
Escherichia coli [1] = test: Antibacterial activity against aminoglycosides-susceptible Escherichia coli R477-100 by double microdilution method
Bacillus subtilis = test: Antibacterial activity against aminoglycosides-susceptible Bacillus subtilis by double microdilution method
Escherichia coli [2] = test: Antibacterial activity against aminoglycosides-susceptible Escherichia coli 25922 by double microdilution method; conditions: ATCC 25922
[3] = tested on: Staphylococcus epidermidis; test: Antibacterial activity against aminoglycosides-susceptible Staphylococcus epidermidis by double microdilution method
Escherichia coli [4] = test: Antibacterial activity against Escherichia coli XL1 blue harboring pET9d encode for APH(3')-1a resistance enzyme by double microdilution method
Escherichia coli [5] = test: Antibacterial activity against aminoglycosides-resistant Escherichia coli BL21 harboring pETSACG1 encode for APH(3')-3a resistance enzyme by double microdilution method
Escherichia coli [6] = test: Antibacterial activity against aminoglycosides-resistant Escherichia coli BL21 harboring pET11d encode for APH(3')-2b resistance enzyme by double microdilution method
Escherichia coli [7] = test: Ratio of MIC for aminoglycosides-resistant Escherichia coli BL21 harboring pETSACG1 encode for APH(3')-3a resistance enzyme to MIC for Escherichia coli BL21
Escherichia coli [8] = test: Antibacterial activity against Escherichia coli XL1 blue by double microdilution method
Escherichia coli [9] = test: Antibacterial activity against aminoglycosides-resistant Escherichia coli BL21 harboring pSF815 encode for bifunctional AAC(6')/APH(2\") resistance enzyme by double microdilution method
Escherichia coli [10] = test: Ratio of MIC for Escherichia coli XL1 blue harboring pET9d encode for APH(3')-1a resistance enzyme to MIC for Escherichia coli XL1 blue
Escherichia coli [11] = test: Ratio of MIC for aminoglycosides-resistant Escherichia coli BL21 harboring pSF815 encode for bifunctional AAC(6')/APH(2\") resistance enzyme to MIC for Escherichia coli BL21
Escherichia coli [12] = test: Antibacterial activity against kanamycin-resistant Escherichia coli AG100A by double microdilution method
Escherichia coli [13] = test: Antibacterial activity against kanamycin-resistant Escherichia coli AG100B by double microdilution method
Escherichia coli [14] = test: Antibacterial activity against Escherichia coli BL21 by double microdilution method
Escherichia coli [15] = test: Ratio of MIC for aminoglycosides-resistant Escherichia coli BL21 harboring pET11d encode for APH(3')-2b resistance enzyme to MIC for Escherichia coli BL21

SMILES | MIC (Escherichia coli [1]) [µg/mL] | MIC (Bacillus subtilis) [µg/mL] | MIC (Escherichia coli [2]) [µg/mL] | MIC [3] [µg/mL] | MIC (Escherichia coli [4]) [µg/mL] | MIC (Escherichia coli [5]) [µg/mL] | MIC (Escherichia coli [6]) [µg/mL] | Ratio (Escherichia coli [7]) | MIC (Escherichia coli [8]) [µg/mL] | MIC (Escherichia coli [9]) [µg/mL] | Ratio (Escherichia coli [10]) | Ratio (Escherichia coli [11]) | MIC (Escherichia coli [12]) [µg/mL] | MIC (Escherichia coli [13]) [µg/mL] | MIC (Escherichia coli [14]) [µg/mL] | Ratio (Escherichia coli [15])
NC[C@H]1O[C@H](O[C@H]2[C@H](O)[C@@H](O[C@H]3O[C@H](CO)[C@@H](O)[C@H](N)[C@H]3O)[C@H](NC(=O)CCCc3cn(CC(O)CN4CCN(c5cc6c(cc5F)c(=O)c(C(=O)O)cn6C5CC5)CC4)nn3)C[C@@H]2N)[C@H](O)[C@@H](O)[C@@H]1O (some centres undefined) | 12 (≈ 11.9 µM) | 1.5 (≈ 1.49 µM) | 6 (≈ 5.95 µM) | 24 (≈ 23.8 µM) |  |  |  |  |  |  |  |  |  |  |  | 
NC[C@H]1O[C@H](O[C@H]2[C@H](O)[C@@H](O[C@H]3O[C@H](CO)[C@@H](O)[C@H](N)[C@H]3O)[C@H](NC(=O)CCc3cn(CCOCCN4CCN(c5cc6c(cc5F)c(=O)c(C(=O)O)cn6C5CC5)CC4)nn3)C[C@@H]2N)[C@H](O)[C@@H](O)[C@@H]1O | 12 (≈ 11.9 µM) | 9 (≈ 8.92 µM) | 6 (≈ 5.95 µM) | 24 (≈ 23.8 µM) | 12 (≈ 11.9 µM) | 0.8 (≈ 0.793 µM) | 0.8 (≈ 0.793 µM) | 1 | 12 (≈ 11.9 µM) | 0.8 (≈ 0.793 µM) | 1 | 1 | 0.75 (≈ 0.743 µM) | 24 (≈ 23.8 µM) | 0.8 (≈ 0.793 µM) | 1
NC[C@H]1O[C@H](O[C@H]2[C@H](O)[C@@H](O[C@H]3O[C@H](CO)[C@@H](O)[C@H](N)[C@H]3O)[C@H](NCc3cn(Cc4cccc(CN5CCN(c6cc7c(cc6F)c(=O)c(C(=O)O)cn7C6CC6)CC5)c4)nn3)C[C@@H]2N)[C@H](O)[C@@H](O)[C@@H]1O | 36 (≈ 36 µM) | 12 (≈ 12 µM) | 24 (≈ 24 µM) | 18 (≈ 18 µM) | 24 (≈ 24 µM) | 0.8 (≈ 0.801 µM) | 0.8 (≈ 0.801 µM) | 1 | 12 (≈ 12 µM) | 0.8 (≈ 0.801 µM) | 2 | 1 | 1.5 (≈ 1.5 µM) | 36 (≈ 36 µM) | 1.5 (≈ 1.5 µM) | 1
NC[C@H]1O[C@H](O[C@H]2[C@H](O)[C@@H](O[C@H]3O[C@H](CO)[C@@H](O)[C@H](N)[C@H]3O)[C@H](NC(=O)CCc3cn(Cc4cccc(CN5CCN(c6cc7c(cc6F)c(=O)c(C(=O)O)cn7C6CC6)CC5)c4)nn3)C[C@@H]2N)[C@H](O)[C@@H](O)[C@@H]1O | 24 (≈ 23.1 µM) | 9 (≈ 8.64 µM) | 18 (≈ 17.3 µM) | 18 (≈ 17.3 µM) | 24 (≈ 23.1 µM) | 1.5 (≈ 1.44 µM) | 1.5 (≈ 1.44 µM) | 2 | 12 (≈ 11.5 µM) | 1.5 (≈ 1.44 µM) | 2 | 2 | 1.5 (≈ 1.44 µM) | 48 (≈ 46.1 µM) | 0.8 (≈ 0.768 µM) | 2
NC[C@H]1O[C@H](O[C@H]2[C@H](O)[C@@H](O[C@H]3O[C@H](CO)[C@@H](O)[C@H](N)[C@H]3O)[C@H](NC(=O)CCc3cn(Cc4ccc(CN5CCN(c6cc7c(cc6F)c(=O)c(C(=O)O)cn7C6CC6)CC5)cc4)nn3)C[C@@H]2N)[C@H](O)[C@@H](O)[C@@H]1O | 36 (≈ 34.6 µM) | 6 (≈ 5.76 µM) | 24 (≈ 23.1 µM) | 18 (≈ 17.3 µM) | 24 (≈ 23.1 µM) | 0.8 (≈ 0.768 µM) | 1.5 (≈ 1.44 µM) | 1 | 24 (≈ 23.1 µM) | 1.5 (≈ 1.44 µM) | 1 | 2 | 3 (≈ 2.88 µM) | 48 (≈ 46.1 µM) | 0.8 (≈ 0.768 µM) | 2
NC[C@H]1O[C@H](O[C@H]2[C@H](O)[C@@H](O[C@H]3O[C@H](CO)[C@@H](O)[C@H](N)[C@H]3O)[C@H](NC(=O)CCc3cn(CC(O)CN4CCN(c5cc6c(cc5F)c(=O)c(C(=O)O)cn6C5CC5)CC4)nn3)C[C@@H]2N)[C@H](O)[C@@H](O)[C@@H]1O (some centres undefined) | 12 (≈ 12.1 µM) | 9 (≈ 9.04 µM) | 6 (≈ 6.03 µM) | 36 (≈ 36.2 µM) | 24 (≈ 24.1 µM) | 1.5 (≈ 1.51 µM) | 1.5 (≈ 1.51 µM) | 1 | 24 (≈ 24.1 µM) | 1.5 (≈ 1.51 µM) | 1 | 1 | 1.5 (≈ 1.51 µM) | 24 (≈ 24.1 µM) | 0.2 (≈ 0.201 µM) | 1

Source: ChEMBL document CHEMBL4033618, “Covalently linked kanamycin - Ciprofloxacin hybrid antibiotics as a tool to fight bacterial resistance” (Bioorg Med Chem, 2017)
